Measurements as given in patent US8206941B2, “Three part assay for kinase or phosphatase activity” (Hoffmann-La Roche Inc., priority 2005, dated 2012).

Molecular target: T1, PDHK2 (recombinant pyruvate dehydrogenase kinase 2) (Homo sapiens, UniProt Q15119)
T1 construct: made in house
Assay: Fast-TR FRET kinase IMAP assay, ATP dependence of the kinase reaction
Type: biochemical
Conditions: 1 μM Alexa-peptide in the kinase reaction; concentration in the kinase reaction (50 times less in readout); FRET readout 730 (30) nm; FIG. 9; read-out: EC50 of ATP dose response curve
From the text: • Substrate peptide (YHGHSMSAPGVSTAC (SEQ ID NO: 1)) from Biosyntan labeled with Alexa Fluor 700 • Phosphorylated substrate peptide (YHGHS(H2PO4)MSAPGVSTAC (SEQ ID NO: 1)) from Biosyntan labeled with Alexa Fluor 700 and Ru(batho) 2bpy • Kinase enzyme: PDHK2 (recombinant pyruvate dehydrogenase kinase 2, expressed according to standard methods) • IMAP™ beads from Molecular Devices (IMAP™ Explorer Kit (IPP) Product # R8062) • Buffer: IMAP™ Binding Buffer 1:5 diluted with dest. H2O+0.05% BSA Instrumentation: • Zeiss plate::vision reader • Plate: Costar 384, UV-NBS • Excitation wavelength: 355 nm • Emission filter: 730 (30) nm, 615 (10) nm
1 μl of the PDHK2 enzyme was diluted in 11 μl kinase buffer (25 mM Hepes pH 7.4, 150 mM NaCl, 18.7 mM MgCl2, 0.4 mM NH4Ac, 0.025% Triton X-100, 1.87 mM DTT). […] For the readout the final substrate concentration was 20 nM (phosphorylated) Alexa-peptide and with the final ATP concentration of 2 μM the FRET signal should be easily detectable (FIG. 5). […]
Note that these were the concentrations in the kinase reaction, in the readout they were 50 times less. […] With higher ATP concentrations the signal decreased again due to free ATP in the readout mixture which bound to the IMAP™ beads and thus decreased the binding capacity of the IMAP™ beads. […]

With Nc1ncnc2c1ncn2[C@@H]1O[C@H](COP(=O)(O)OP(=O)(O)OP(=O)(O)O)[C@@H](O)[C@H]1O [ATP] the EC50 was 3.6 µM.
